Source: patent US9970938B2, “Use of BUBR1 as a biomarker of drug response to furazanobenzimidazoles” (Basilea Pharmaceutica AG, priority 2011, dated 2018)

Legend:
Format in all cases: cell-based, human
A549 NSCLC cells = experiment: Immunofluorescent staining of microtubules in cultured cells; conditions: for microtubule phenotype of mitotic or G2/M arrested cells: 24 hours treatment, anti-alpha-tubulin staining; for microtubule phenotype, agent added for the last 4 hours of 24 hours BAL27862 treatment: combination
Description: A549 human non-small cell lung cancer (NSCLC, ATCC reference number CCL-185) cells, HeLa cervical cancer cells (ATCC reference number CCL-2) and SKBR3 breast carcinoma cells (ATCC reference number HTB-30) were seeded at densities of 50% on round microscope coverslips and cultured for 24 hours in RPMI-1640 containing 10% FCS (also referred to as FBS) at 37° C., 5% CO2. Compounds to be tested were dissolved in DMSO. The cell culture medium was replaced with medium containing the diluted compound(s) (paclitaxel, vinblastine, colchicine and nocodazole were purchased from Sigma-Aldrich) or vehicle. After treatment, coverslips were washed and cells were fixed in methanol/acetone (1:1) for 5 minutes at room temperature and subsequently incubated in blocking buffer (0.5% BSA and 0.1% TX-100 in PBS) for 30 minutes at room temperature. Specimens were then incubated with anti-alpha-tubulin antibody (Sigma, 1:2000) for 1 hour at room temperature in blocking buffer. After several washing steps cells were incubated with AlexaFluor-488 goat-anti-mouse IgG (Molecular Probes, 1:3000) for 1 hour at room temperature followed by several washing steps with blocking buffer. Specimens were then mounted with ProLong Gold antifade (Molecular Probes), sealed with nail polish and examined with a Leica immunofluorescence microscope. Images were captured with a cooled CCD-camera and processed by ImageJ software.

SKOV3 resistant 2 = experiment: Crystal Violet assay of BAL27862-resistant cell line versus parental line; conditions: 72 hours incubation, Crystal Violet
Text: (§1) BAL27862-resistant sublines of human non-small cell lung cancer (H460 ATCC reference HTB-177; A549 ATCC reference CCL-185), ovarian cancer (SKOV3 ATCC reference HTB-77) lines were generated by long-term selection in complete cell culture medium (RPMI-1640 containing 10% FCS; Sigma-Aldrich) by stepwise increasing concentrations of BAL27862. […] The resistant sublines were expanded at the highest tolerated BAL27862 concentration and subsequently frozen and stored in liquid nitrogen.
(§2) After medium was removed, cells were fixed and stained by adding 50 μl Crystal Violet Staining (0.2% Crystal Violet in 50% Methanol) per well. Plates were incubated for 1 hour at room temperature. Subsequently the stain was decanted and plates were washed 4 times with double-distilled water. Plates were air-dried for several hours. Stain was dissolved by adding 100 μl buffer (0.1 M Tris pH 7.5, 0.2% SDS, 20% Ethanol) per well and shaking the plates. Absorbance at 590 nm was measured using a SpectraMax M2e plate reader (Molecular Devices). Anti-proliferative IC50 values were calculated from concentration response curves using GraphPad Prism software. Resistance factors were calculated as a ratio of BAL27862 IC50 in the resistant line variant versus the IC50 in the parental line.

A549 = experiment: as above; conditions: 72 hours incubation, Crystal Violet
Text: as §1, §2

SKOV3 resistant 1 = experiment: as above; conditions: 72 hours incubation, Crystal Violet
Text: as §1, §2

H460 = experiment: as above; conditions: 72 hours incubation, Crystal Violet
Text: as §1, §2

[1] = test system: tumour cells derived from patient-derived tumours from gastric and lung cancer; experiment: Colony outgrowth assay, all tumour models
Description: (§3) Single cell suspensions of patient-derived tumour xenografts (maintained in nude mice) were prepared. For colony outgrowth assays, cells were plated in soft agar in 24-well plates according to the assay introduced by Hamburger & Salmon (Primary bioassay of human tumour stem cells, Science, 1977, 197:461-463). 2.0E+04-6.0E+04 cells in 0.2 mL medium containing 0.4% agar were plated out on a bottom layer of 0.75% agar. Test compounds were applied in 0.2 mL culture medium. Every 24-well plate contained untreated controls and samples in triplicates. Cultures were incubated at 37° C. and 7.5% CO2 for 5-28 days. 24 hours prior to analysis, vital colonies were stained with a solution of metabolizable tetrazolium salt (Alley M C et al, Life Sci. 1982, 31:3071-3078) and were counted with an automatic image analysis system (Omnicon 3600, Biosys GmbH). Relative drug effects were expressed by the ratio of the mean number of colonies in the treated wells and the control wells. IC70-values were determined by plotting compound concentrations versus relative colony counts.

LXFA629 = experiment: Colony outgrowth assay, patient-derived tumour xenograft cells; parameters: key: S: BAL27862-sensitive tumour cells have IC70 values in the low nanomolar range; R: BAL27862-resistant tumour cells are defined by IC70 values >600 nanomolar; conditions: Lung
Description: as §3, with “GmbH).” for “GmbH). Relative drug effects were expressed by the ratio of the mean number of colonies in the treated wells and the control wells. IC70-values were determined by plotting compound concentrations versus relative colony counts.”
(§4) Relative drug effects were expressed by the ratio of the mean number of colonies in the treated wells and the control wells. IC70-values were determined by plotting compound concentrations versus relative colony counts.

GXF251 = experiment: as above; parameters: key: S: BAL27862-sensitive tumour cells have IC70 values in the low nanomolar range; R: BAL27862-resistant tumour cells are defined by IC70 values >600 nanomolar; conditions: Gastric
Description: as §3, with “GmbH).” for “GmbH). Relative drug effects were expressed by the ratio of the mean number of colonies in the treated wells and the control wells. IC70-values were determined by plotting compound concentrations versus relative colony counts.”
as §4

LXFL529 = experiment: as above; parameters: key: S: BAL27862-sensitive tumour cells have IC70 values in the low nanomolar range; R: BAL27862-resistant tumour cells are defined by IC70 values >600 nanomolar; conditions: Lung
Description: as §3, with “GmbH).” for “GmbH). Relative drug effects were expressed by the ratio of the mean number of colonies in the treated wells and the control wells. IC70-values were determined by plotting compound concentrations versus relative colony counts.”
as §4

GXF97 = experiment: as above; parameters: key: S: BAL27862-sensitive tumour cells have IC70 values in the low nanomolar range; R: BAL27862-resistant tumour cells are defined by IC70 values >600 nanomolar; conditions: Gastric
Description: as §3, with “GmbH).” for “GmbH). Relative drug effects were expressed by the ratio of the mean number of colonies in the treated wells and the control wells. IC70-values were determined by plotting compound concentrations versus relative colony counts.”
as §4

BAL27862-resistant cells = experiment: Crystal Violet assay of BAL27862-resistant cell lines, all lines
Text: as §1, §2

| Structure (SMILES) | microtubule phenotype of mitotic or G2/M arrested cells (A549 NSCLC cells) | microtubule phenotype, agent added for the last 4 hours of 24 hours BAL27862 treatment (A549 NSCLC cells) | resistance or sensitivity to treatment, same ex vivo assay [1] | Sensitive (S)/Resistant (R), by IC70 in colony outgrowth (LXFA629) | Sensitive (S)/Resistant (R), by IC70 in colony outgrowth (GXF251) | Sensitive (S)/Resistant (R), by IC70 in colony outgrowth (LXFL529) | Sensitive (S)/Resistant (R), by IC70 in colony outgrowth (GXF97) | also measured |
| --- | --- | --- | --- | --- | --- | --- | --- | --- |
| Nc1ccc(C(=O)Cn2c(-c3nonc3N)nc3ccccc32)cc1 [Compound B, 2-[2-(4-Amino-furazan-3-yl)-benzoimidazol-1-yl]-1-(4-amino-phenyl)-ethanone] | highly reproducible and distinct microtubule phenotype | – | – | – | – | – | – | – |
| N#CCCNc1nonc1-c1nc2ccccc2n1CC(=O)c1ccc(N)nc1 [Compound C, 3-(4-{1-[2-(6-Amino-pyridin-3-yl)-2-oxo-ethyl]-1H-benzoimidazol-2-yl}-furazan-3-ylamino)-propionitrile] | highly reproducible and distinct microtubule phenotype | – | – | – | – | – | – | – |
| COC(=O)Nc1nc2ccc(C(=O)c3cccs3)cc2[nH]1 [Nocodazole, nocodazole] | mitotic microtubule phenotypes characteristic of these agents | no impact on the observed microtubule phenotype | – | – | – | – | – | – |
| COc1cc2c(c(OC)c1OC)-c1ccc(OC)c(=O)cc1[C@@H](NC(C)=O)CC2 [Colchicine, colchicine] | mitotic microtubule phenotypes characteristic of these agents | no impact on the observed microtubule phenotype | – | – | – | – | – | Resistance factors (ratio of IC50 BAL27862-resistant cell line variant and IC50 parental cell line) (SKOV3 resistant 2): 2.8; Resistance factors (ratio of IC50 BAL27862-resistant cell line variant and IC50 parental cell line) (A549): 0.9; Resistance factors (ratio of IC50 BAL27862-resistant cell line variant and IC50 parental cell line) (SKOV3 resistant 1): 2.0; Resistance factors (ratio of IC50 BAL27862-resistant cell line variant and IC50 parental cell line) (H460): 1.6 |
| CC[C@]1(O)C[C@@H]2CN(CCc3c([nH]c4ccccc34)[C@@](C(=O)OC)(c3cc4c(cc3OC)N(C)[C@H]3[C@@](O)(C(=O)OC)[C@H](OC(C)=O)[C@]5(CC)C=CCN6CC[C@]43[C@@H]65)C2)C1 [Vinblastine, vinblastine] | mitotic microtubule phenotypes characteristic of these agents | no impact on the observed microtubule phenotype | sensitive | S | S | S | S | – |
| CC(=O)O[C@H]1C(=O)[C@@]2(C)[C@H]([C@H](OC(=O)c3ccccc3)[C@]3(O)C[C@H](OC(=O)[C@H](O)[C@@H](NC(=O)c4ccccc4)c4ccccc4)C(C)=C1C3(C)C)[C@]1(OC(C)=O)CO[C@@H]1C[C@@H]2O [Paclitaxel, paclitaxel] | mitotic microtubule phenotypes characteristic of these agents | no impact on the observed microtubule phenotype | resistant | R (BAL27862-resistant tumour cells are defined by IC70 values >600 nanomolar) | R (BAL27862-resistant tumour cells are defined by IC70 values >600 nanomolar) | R (BAL27862-resistant tumour cells are defined by IC70 values >600 nanomolar) | R (BAL27862-resistant tumour cells are defined by IC70 values >600 nanomolar) | response of BAL27862-resistant cells versus parental (BAL27862-resistant cells): increased sensitivity |
